# The source made the active and inactive calls. No cut-off for these calls is given here.
# Tests used:
# [1] = Drug uptake in human PC-9 cells at 10 uM by fluorescence microscopy; assay type: ADME, cell-based; conditions: pc-9, 10 µM
# [2] = target: COP9 signalosome complex subunit 5 (Homo sapiens) (UniProt Q92905); test: Induction of PD-L1 degradation in human NCI-H460 cells at 10 uM incubated for 24 hrs by Western blot analysis; assay type: cell-based
# [3] = tested on: Lewis lung carcinoma cell line; test: Antitumor T-cell immune response in Lewis lung carcinoma cells xenografted in C57BL/6 mouse model assessed as increase in TNF-alpha level in tumor at 10 mg/kg, ip administered daily for 10 days by ELISA; assay type: functional, organism-based; conditions: time 10.0 day
# [4] = tested on: Lewis lung carcinoma cell line; test: Antitumor T-cell immune response in Lewis lung carcinoma cells xenografted in C57BL/6 mouse model assessed as increase in ratio of CD8+ to CD4+ T cells in tumor at 10 mg/kg, ip administered daily for 10 days by flow cytometry; assay type: functional, organism-based; conditions: time 10.0 day
# [5] = Toxicity in C57BL/6 mouse model xenografted with […] cells assessed as obvious damage in lung at 10 mg/kg, ip administered daily for 10 days by H and E staining based analysis; assay type: organism-based; conditions: in vivo, 240 h, time 10 day
# [6] = tested on: Lewis lung carcinoma cell line; test: Antitumor T-cell immune response in Lewis lung carcinoma cells xenografted in C57BL/6 mouse model assessed as increase in GrB level in tumor at 10 mg/kg, ip administered daily for 10 days by ELISA; assay type: functional, organism-based; conditions: time 10.0 day
# [7] = Toxicity in C57BL/6 mouse model xenografted with […] cells assessed as obvious damage in spleen at 10 mg/kg, ip administered daily for 10 days by H and E staining based analysis; assay type: organism-based; conditions: in vivo, 240 h, time 10 day
# [8] = Toxicity in C57BL/6 mouse model xenografted with […] cells assessed as change in AST level at 10 mg/kg, ip administered daily for 10 days; assay type: organism-based, Blood; conditions: in vivo, 240 h, time 10 day
# [9] = Toxicity in C57BL/6 mouse model xenografted with […] cells assessed as change in serum creatinine level at 10 mg/kg, ip administered daily for 10 days; assay type: organism-based; conditions: in vivo, 240 h, time 10 day
# [10] = tested on: Lewis lung carcinoma cell line; test: Antitumor T-cell immune response in Lewis lung carcinoma cells xenografted in C57BL/6 mouse model assessed as decrease in CD3+ CD4+ population in CD45+ T cells in tumor at 10 mg/kg, ip administered daily for 10 days by flow cytometry; assay type: functional, organism-based; conditions: time 10.0 day
# [11] = tested on: Lewis lung carcinoma cell line; test: Antitumor T-cell immune response in Lewis lung carcinoma cells xenografted in C57BL/6 mouse model assessed as increase in IFN-gamma level in tumor at 10 mg/kg, ip administered daily for 10 days by ELISA; assay type: functional, organism-based; conditions: time 10.0 day
# [12] = Toxicity in C57BL/6 mouse model xenografted with […] cells assessed as obvious damage in liver at 10 mg/kg, ip administered daily for 10 days by H and E staining based analysis; assay type: organism-based; conditions: in vivo, 240 h, time 10 day
# [13] = Toxicity in C57BL/6 mouse model xenografted with […] cells assessed as change in ALT level at 10 mg/kg, ip administered daily for 10 days; assay type: organism-based, Blood; conditions: in vivo, 240 h, time 10 day
# [14] = tested on: Lewis lung carcinoma cell line; test: Antitumor T-cell immune response in Lewis lung carcinoma cells xenografted in C57BL/6 mouse model assessed as increase in CD3+ CD8+ infiltration in CD45+ T cells in tumor at 10 mg/kg, ip administered daily for 10 days by flow cytometry; assay type: functional, organism-based; conditions: time 10.0 day
# [15] = Toxicity in C57BL/6 mouse model xenografted with […] cells assessed as body weight loss at 10 mg/kg, ip administered daily for 10 days; assay type: organism-based; conditions: in vivo, 240 h, time 10 day
# [16] = tested on: Lewis lung carcinoma cell line; test: Anticancer activity against Lewis lung carcinoma cells xenografted in C57BL/6 mouse model at 10 mg/kg, ip administered daily for 10 days relative to control; assay type: functional; conditions: 240 h, time 10 day, read-out: TGI
# [17] = tested on: Lewis lung carcinoma cell line; test: Anticancer activity against Lewis lung carcinoma cells xenografted in C57BL/6 mouse model assessed as tumor growth inhibition at 10 mg/kg, ip administered daily for 10 days; assay type: functional, organism-based; conditions: time 10.0 day
# [18] = Toxicity in C57BL/6 mouse model xenografted with […] cells assessed as obvious damage in kidney at 10 mg/kg, ip administered daily for 10 days by H and E staining based analysis; assay type: organism-based; conditions: in vivo, 240 h, time 10 day
# [19] = Toxicity in C57BL/6 mouse model xenografted with […] cells assessed as change in BUN level at 10 mg/kg, ip administered daily for 10 days; assay type: organism-based, Blood; conditions: in vivo, 240 h, time 10 day
# [20] = Toxicity in C57BL/6 mouse model xenografted with […] cells assessed as obvious damage in heart at 10 mg/kg, ip administered daily for 10 days by H and E staining based analysis; assay type: organism-based; conditions: in vivo, 240 h, time 10 day
# Mus musculus = test: Biodistribution in C57BL/6 mouse model bearing […] lung carcinoma cells assessed as increase in fluorescence signal in tumor at 2 mg/kg, iv measured 4 hrs post-injection by IVIS analysis; assay type: ADME, organism-based; conditions: in vivo
# 3T3-L1 = test: Antiproliferative activity against mouse 3T3-L1 cells at 10 uM incubated for 4 days; assay type: toxicity, cell-based; conditions: 3t3-l1, 96 h, time 4 day
# [21] = tested on: Lewis lung carcinoma cell line; test: Antitumor T-cell immune response in Lewis lung carcinoma cells xenografted in C57BL/6 mouse model assessed as increase in ratio of CD8+ to CD4+ T cells in tumor at 24.5 mg/kg, ip administered daily for 8 days by flow cytometry; assay type: functional, organism-based; conditions: time 8.0 day
# [22] = Antiproliferative activity against human HTori-3 cells at 10 uM incubated for 4 days; assay type: toxicity, cell-based; conditions: htori-3, 96 h, time 4 day
# HEK-293T = test: Antiproliferative activity against HEK293T cells at 10 uM incubated for 4 days; assay type: toxicity, cell-based; conditions: human, 96 h, time 4 day
# [23] = tested on: Lewis lung carcinoma cell line; test: Antitumor activity against Lewis lung carcinoma cells xenografted in C57BL/6 mouse model at 24.5 mg/kg, ip administered daily for 8 days relative to control; assay type: functional; conditions: 192 h, time 8 day, read-out: TGI
# [24] = target: COP9 signalosome complex subunit 5 (Homo sapiens) (UniProt Q92905); test: Induction of PD-L1 degradation in human NCI-H460 cells at 10 uM incubated for 2 days by Western blot analysis; assay type: cell-based; conditions: time 2.0 day
# [25] = target: COP9 signalosome complex subunit 5 (Homo sapiens) (UniProt Q92905); test: Induction of PD-L1 degradation in human NCI-H460 cells at 10 uM by Western blot analysis; assay type: cell-based; conditions: time <= 36.0 hrs
# Chain of COP9 signalosome complex subunit 5 (Homo sapiens) (Q92905 2-334 limits assumed, one chain of several): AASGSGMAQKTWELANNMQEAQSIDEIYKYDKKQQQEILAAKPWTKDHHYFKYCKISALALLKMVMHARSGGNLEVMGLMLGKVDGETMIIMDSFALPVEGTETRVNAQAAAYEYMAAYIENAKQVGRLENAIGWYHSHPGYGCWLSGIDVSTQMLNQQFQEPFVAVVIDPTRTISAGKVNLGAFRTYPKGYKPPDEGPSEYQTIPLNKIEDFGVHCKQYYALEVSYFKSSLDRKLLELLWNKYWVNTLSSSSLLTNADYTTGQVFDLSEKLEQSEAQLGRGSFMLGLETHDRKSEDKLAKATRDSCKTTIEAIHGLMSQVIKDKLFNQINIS
smiles,measurement,setting,value
COc1ccc2cc3[n+](cc2c1OC)CCc1cc2c(cc1-3)OCO2.[Cl-] [BERBERINE CHLORIDE],Drug uptake,[1],Time-dependent-effect
same,Activity,[2],Active
COc1cc2c(cc1OC)-c1cc3ccc(OC)c(OCCCCCN)c3c[n+]1CC2.[Cl-],Activity,[3],Active
same,Activity,[4],Active
same,Activity,[5],Non-toxic
same,Activity,[6],Active
same,Activity,[7],Non-toxic
same,Activity,[8],Non-toxic
same,Activity,[9],Non-toxic
same,Activity,[10],Active
same,Activity,[11],Active
same,Activity,[12],Non-toxic
same,Activity,[13],Non-toxic
same,Activity,[14],Active
same,Activity,[15],Non-toxic
same,inhibition in vivo at 10 mg/kg,[16],68%
same,Drug uptake,[1],Time-dependent-effect
same,Activity,[17],Active
same,Activity,[18],Non-toxic
same,Activity,[19],Non-toxic
same,Activity,[20],Non-toxic
same,Activity,[2],Active
CCN1/C(=C/C=C/C=C/C2=[N+](CCCCCC(=O)NCCN3C(=O)CC(SC[C@H](N)C(=O)NCCCCCC(=O)N[C@@H](CC(N)=O)C(=O)N[C@@H](Cc4ccc(O)cc4)C(=O)N[C@@H](CO)C(=O)N[C@@H](CCCCN)C(=O)N4CCC[C@H]4C(=O)N[C@H](C(=O)N[C@@H](CC(=O)O)C(=O)N[C@@H](CCCNC(=N)N)C(=O)N[C@@H](CCC(N)=O)C(=O)N[C@@H](Cc4ccc(O)cc4)C(=O)N[C@@H](Cc4cnc[nH]4)C(=O)N[C@@H](Cc4ccccc4)C(=O)O)[C@@H](C)O)C3=O)c3ccc(S(=O)(=O)O)cc3C2(C)C)C(C)(C)c2cc(S(=O)(=O)O)ccc21 (stereo partly drawn),Drug uptake,Mus musculus,Active
COc1cc2c(cc1OC)-c1cc3ccc(OC)c(OCCOCCOCCN)c3c[n+]1CC2.[Cl-],Drug uptake,[1],Time-dependent-effect
same,Activity,[2],Active
COc1cc2c(cc1OC)-c1cc3ccc(OC)c(OC)c3c[n+]1CC2.[Cl-] [PALMATINE CHLORIDE],Activity,[3],Active
same,Activity,[4],Active
same,Activity,[5],Non-toxic
same,Activity,[6],Active
same,Activity,[7],Non-toxic
same,Activity,[8],Non-toxic
same,Activity,[9],Non-toxic
same,Activity,[10],Active
same,Activity,[11],Active
same,Activity,[12],Non-toxic
same,Activity,[13],Non-toxic
same,Activity,[14],Active
same,Activity,[15],Non-toxic
same,Drug uptake,[1],Time-dependent-effect
same,Activity,[17],Active; Highest Efficacy Of Tumor Growth Suppression Among Pmt Derivatives
same,Activity,[18],Non-toxic
same,Activity,[19],Non-toxic
same,Activity,[20],Non-toxic
same,Activity,[2],Active
COc1ccc2cc3[n+](cc2c1OCCN)CCc1cc2c(cc1-3)OCO2.[Cl-],Drug uptake,[1],Time-dependent-effect
same,Activity,[2],inactive
C[C@@H](O)[C@H](NC(=O)[C@@H]1CCCN1C(=O)[C@H](CCCCN)NC(=O)[C@H](CO)NC(=O)[C@H](Cc1ccc(O)cc1)NC(=O)[C@H](CC(N)=O)NC(=O)CCCCCNC(=O)[C@@H](N)CS)C(=O)N[C@@H](CC(=O)O)C(=O)N[C@@H](CCCNC(=N)N)C(=O)N[C@@H](CCC(N)=O)C(=O)N[C@@H](Cc1ccc(O)cc1)C(=O)N[C@@H](Cc1cnc[nH]1)C(=O)N[C@@H](Cc1ccccc1)C(=O)O,Activity,3T3-L1,Non-toxic
same,Activity,[21],Active
same,Activity,[22],Non-toxic
same,Activity,HEK-293T,Non-toxic
same,inhibition in vivo at 24.5 mg/kg,[23],37%
same,Activity,[24],inactive
COc1ccc2cc3[n+](cc2c1OCCCCCN)CCc1cc2c(cc1-3)OCO2.[Cl-],Drug uptake,[1],Time-dependent-effect
same,Activity,[2],Active
COc1cc2c(cc1OC)-c1cc3ccc(OC)c(OCCNC(=O)CCCC[C@@H]4SC[C@@H]5NC(=O)N[C@@H]54)c3c[n+]1CC2,Activity,[25],Active
COc1cc2c(cc1OC)-c1cc3ccc(OC)c(OCCCN)c3c[n+]1CC2.[Cl-],Activity,[3],Active
same,Activity,[4],Active
same,Activity,[5],Non-toxic
same,Activity,[6],Active
same,Activity,[7],Non-toxic
same,Activity,[8],Non-toxic
same,Activity,[9],Non-toxic
same,Activity,[10],Active
same,Activity,[11],Active
same,Activity,[12],Non-toxic
same,Activity,[13],Non-toxic
same,Activity,[14],Active
same,Activity,[15],Non-toxic
same,inhibition in vivo at 10 mg/kg,[16],65%
same,Drug uptake,[1],Time-dependent-effect
same,Activity,[17],Active
same,Activity,[18],Non-toxic
same,Activity,[19],Non-toxic
same,Activity,[20],Non-toxic
same,Activity,[2],Active
COc1ccc2cc3[n+](cc2c1OCCOCCOCCN)CCc1cc2c(cc1-3)OCO2.[Cl-],Drug uptake,[1],Time-dependent-effect
same,Activity,[2],Active
COc1ccc2cc3[n+](cc2c1OCCCN)CCc1cc2c(cc1-3)OCO2.[Cl-],Drug uptake,[1],Time-dependent-effect
same,Activity,[2],Active
COc1cc2c(cc1OC)-c1cc3ccc(OC)c(OCCNC(=O)OCc4ccc(SSC[C@H](N)C(=O)NCCCCCC(=O)N[C@@H](CC(N)=O)C(=O)N[C@@H](Cc5ccc(O)cc5)C(=O)N[C@@H](CO)C(=O)N[C@@H](CCCCN)C(=O)N5CCC[C@H]5C(=O)N[C@H](C(=O)N[C@@H](CC(=O)O)C(=O)N[C@@H](CCCNC(=N)N)C(=O)N[C@@H](CCC(N)=O)C(=O)N[C@@H](Cc5ccc(O)cc5)C(=O)N[C@@H](Cc5cnc[nH]5)C(=O)N[C@@H](Cc5ccccc5)C(=O)O)[C@@H](C)O)cc4)c3c[n+]1CC2.[Cl-],Activity,3T3-L1,Toxic
same,Activity,[22],Toxic
same,Activity,HEK-293T,Toxic
same,Activity,[24],Active
